The record followed here is PubChem BioAssay AID248 (DTP/NCI, 2004).

Toxic doses and inconclusive results are not listed.

This test has as its system L1210 leukemia ip in BDF1 mice, survival T/C. Kind of test: NCI In Vivo Anticancer Drug Screen. Data for tumor model L1210 Leukemia (intraperitoneal) in B6D2F1 (BDF1) mice. The following applies: endpoint: mean survival time, higher = longer survival. A digest of the protocol: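 Transplantable tumor model; survival measured in treated vs vehicle control mice. Value = treated/control.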

The mark [1] stands for this setting: dose: 100.0 mg/kg/injection, schedule: Q01DX009 (ip), vehicle: Klucel (hydroxypropylcellulose) (HPC).
Where [2] appears, read: dose: 100.0 mg/kg/injection, schedule: Q04DX003 (ip), vehicle: Klucel (hydroxypropylcellulose) (HPC).
Where [3] appears, read: dose: 200.0 mg/kg/injection, schedule: Q01DX009 (ip), vehicle: Klucel (hydroxypropylcellulose) (HPC).
[4] abbreviates: dose: 200.0 mg/kg/injection, schedule: Q04DX003 (ip), vehicle: Klucel (hydroxypropylcellulose) (HPC).
[5] abbreviates: dose: 400.0 mg/kg/injection, schedule: Q01DX009 (ip), vehicle: Klucel (hydroxypropylcellulose) (HPC).
Setting [6] is: dose: 400.0 mg/kg/injection, schedule: Q04DX003 (ip), vehicle: Klucel (hydroxypropylcellulose) (HPC).
The mark [7] stands for this setting: dose: 100.0 mg/kg/injection, schedule: Q04DX003 (ip), vehicle: saline with Tween-80.
Where [8] appears, read: dose: 200.0 mg/kg/injection, schedule: Q04DX003 (ip), vehicle: saline with Tween-80.
Where [9] appears, read: dose: 400.0 mg/kg/injection, schedule: Q04DX003 (ip), vehicle: saline with Tween-80.
Where [10] appears, read: dose: 100.0 mg/kg/injection, schedule: Q01DX001 (ip), vehicle: carboxymethylcellulose (CMC).
Where [11] appears, read: dose: 200.0 mg/kg/injection, schedule: Q01DX001 (ip), vehicle: carboxymethylcellulose (CMC).
[12] abbreviates: dose: 400.0 mg/kg/injection, schedule: Q01DX001 (ip), vehicle: carboxymethylcellulose (CMC).
The mark [13] stands for this setting: dose: 25.0 mg/kg/injection, schedule: Q01DX009 (ip), vehicle: Klucel (hydroxypropylcellulose) (HPC).
The mark [14] stands for this setting: dose: 50.0 mg/kg/injection, schedule: Q01DX009 (ip), vehicle: Klucel (hydroxypropylcellulose) (HPC).
[15] abbreviates: dose: 100.0 mg/kg/injection, schedule: Q04DX002 (ip), vehicle: Klucel (hydroxypropylcellulose) (HPC).
[16] abbreviates: dose: 200.0 mg/kg/injection, schedule: Q04DX002 (ip), vehicle: Klucel (hydroxypropylcellulose) (HPC).
Setting [17] is: dose: 400.0 mg/kg/injection, schedule: Q04DX002 (ip), vehicle: Klucel (hydroxypropylcellulose) (HPC).

Turning to `COc1ccc(C(=O)NC(=S)Nc2ccc(I)cc2)cc1`, the T/C under setting [1] is 98 % of control; the T/C under setting [2] was 89 % of control; the T/C under setting [3] was 98 % of control; the T/C under setting [4] is 89 % of control; the T/C under setting [5] is 91 % of control; the T/C under setting [6] is 94 % of control.

For the molecule `OCCNC(=S)SCc1ccccc1`, the T/C by setting is: (dose: 100.0 mg/kg/injection, schedule: Q01DX009 (sc), vehicle: olive oil, sesame oil, peanut oil) 102 % of control; (dose: 100.0 mg/kg/injection, schedule: Q04DX003 (sc), vehicle: olive oil, sesame oil, peanut oil) 96 % of control; (dose: 200.0 mg/kg/injection, schedule: Q01DX009 (sc), vehicle: olive oil, sesame oil, peanut oil) 120 % of control; (dose: 200.0 mg/kg/injection, schedule: Q04DX003 (sc), vehicle: olive oil, sesame oil, peanut oil) 98 % of control; (dose: 400.0 mg/kg/injection, schedule: Q04DX003 (sc), vehicle: olive oil, sesame oil, peanut oil) 105 % of control.

Regarding `CCCCc1cccc(N2C(N)=NC(N)=NC2(C)C)c1`, the T/C runs as follows: (dose: 12.5 mg/kg/injection, schedule: Q01DX001 (ip), vehicle: saline) 103 % of control; (dose: 50.0 mg/kg/injection, schedule: Q01DX001 (ip), vehicle: saline) 89 % of control.

Consider `CC1(C)CC(=O)C(C)(CCc2ccccc2)C(=O)C1`, for which the T/C under setting [7] is 97 % of control, the T/C under setting [8] is 98 % of control and the T/C under setting [9] is 95 % of control.

As to `COC(OC)/C(C)=N/NC(N)=O`, the T/C was 88 % of control under setting [10], 116 % of control under setting [11] and 108 % of control under setting [12].

On to `Cn1c(=O)c2ncn(CC(O)COc3ccccc3)c2n(C)c1=O` (stereo not drawn), for which the T/C is, setting by setting: under setting [2], 102 % of control; under setting [4], 104 % of control; under setting [6], 101 % of control.

`CCOC(=O)C1=C2c3ccc4cc(OC)ccc4c3CCC2(C)C(=O)C1` (stereo not drawn): the T/C by setting is: (dose: 100.0 mg/kg/injection, schedule: Q04DX003 (sc), vehicle: steriod suspending solution) 102 % of control; (dose: 200.0 mg/kg/injection, schedule: Q04DX003 (sc), vehicle: steriod suspending solution) 109 % of control; (dose: 400.0 mg/kg/injection, schedule: Q04DX003 (sc), vehicle: steriod suspending solution) 109 % of control.

Regarding `O=C(O)c1cc(O)[nH]c(=O)c1`, the T/C by setting is: under setting [7], 102 % of control; under setting [8], 91 % of control; under setting [9], 94 % of control.

In the case of `CCOc1ccc(/C=N/NS(=O)(=O)c2ccc(C)cc2)cc1`, the T/C is, setting by setting: under setting [1], 104 % of control; under setting [2], 91 % of control; under setting [3], 100 % of control; under setting [4], 92 % of control; under setting [5], 94 % of control; under setting [6], 92 % of control.

In the case of `OC(C1CO1)(C(F)(F)F)C(F)(F)F` (stereo not drawn), the T/C by setting is: (dose: 100.0 mg/kg/injection, schedule: Q01DX009 (ip), vehicle: saline) 98 % of control; under setting [7], 92 % of control; (dose: 200.0 mg/kg/injection, schedule: Q01DX009 (ip), vehicle: saline) 106 % of control; under setting [8], 91 % of control; under setting [9], 97 % of control.

With `CCS(=O)(=O)c1ccc(NC(=O)OC(c2ccccc2)c2ccccc2)cc1`, the T/C by setting is: under setting [10], 94 % of control; under setting [11], 91 % of control; under setting [12], 96 % of control.

For the molecule `O=C(NCCCN1CCOCC1)C(Oc1ccccc1)Oc1ccccc1`, the T/C (dose: 6.25 mg/kg/injection, schedule: Q01DX009 (ip), vehicle: Klucel (hydroxypropylcellulose) (HPC)) is 91 % of control; the T/C (dose: 12.5 mg/kg/injection, schedule: Q01DX009 (ip), vehicle: Klucel (hydroxypropylcellulose) (HPC)) is 98 % of control; the T/C under setting [13] was 100 % of control; the T/C under setting [14] was 89 % of control.

For `OC1=NN(Cc2ccccc2)NO1`, the T/C under setting [13] is 95 % of control; the T/C under setting [14] was 95 % of control; the T/C under setting [1] was 92 % of control; the T/C under setting [15] is 104 % of control; the T/C under setting [16] was 104 % of control; the T/C under setting [17] is 93 % of control.

In the case of `COc1cccnc1/C=N/NC(N)=S`, the T/C (dose: 12.5 mg/kg/injection, schedule: Q01DX009 (ip), vehicle: saline with Tween-80) is 150 % of control.

`CCCCOC(=O)c1ccc(OC(=O)Nc2ccc([N+](=O)[O-])cc2OC)cc1`: the T/C is, setting by setting: (dose: 50.0 mg/kg/injection, schedule: Q01DX001 (ip), vehicle: Klucel (hydroxypropylcellulose) (HPC)) 93 % of control; under setting [14], 96 % of control; (dose: 50.0 mg/kg/injection, schedule: Q01DX009 (ip), vehicle: other) 101 % of control; (dose: 50.0 mg/kg/injection, schedule: Q04DX002 (ip), vehicle: Klucel (hydroxypropylcellulose) (HPC)) 97 % of control; (dose: 50.0 mg/kg/injection, schedule: Q04DX003 (ip), vehicle: other) 98 % of control; (dose: 100.0 mg/kg/injection, schedule: Q01DX001 (ip), vehicle: Klucel (hydroxypropylcellulose) (HPC)) 93 % of control. Further, the T/C reads like this: under setting [1], 96 % of control; (dose: 100.0 mg/kg/injection, schedule: Q01DX009 (ip), vehicle: other) 105 % of control; under setting [15], 94 % of control; (dose: 100.0 mg/kg/injection, schedule: Q04DX003 (ip), vehicle: other) 109 % of control; (dose: 200.0 mg/kg/injection, schedule: Q01DX001 (ip), vehicle: Klucel (hydroxypropylcellulose) (HPC)) 92 % of control; under setting [3], 122 % of control. For the same molecule, the T/C reads like this: (dose: 200.0 mg/kg/injection, schedule: Q01DX009 (ip), vehicle: other) 102 % of control; under setting [16], 97 % of control; (dose: 200.0 mg/kg/injection, schedule: Q04DX003 (ip), vehicle: other) 101 % of control; (dose: 400.0 mg/kg/injection, schedule: Q01DX001 (ip), vehicle: Klucel (hydroxypropylcellulose) (HPC)) 101 % of control; under setting [17], 100 % of control; (dose: 400.0 mg/kg/injection, schedule: Q04DX003 (ip), vehicle: other) 97 % of control.

Take `CCOC(=O)C(=O)Nc1ccccc1-c1ccccc1`: the T/C is, setting by setting: (dose: 100.0 mg/kg/injection, schedule: Q04DX003 (ip), vehicle: saline) 102 % of control; (dose: 200.0 mg/kg/injection, schedule: Q04DX003 (ip), vehicle: saline) 98 % of control; (dose: 400.0 mg/kg/injection, schedule: Q04DX003 (ip), vehicle: saline) 101 % of control.

`Brc1cccc[n+]1Cc1ccc(C[n+]2ccccc2Br)cc1`: the T/C (dose: 2.66 mg/kg/injection, schedule: Q01DX Z (ip), vehicle: saline) is 98 % of control.

In the case of `CC(C)(C)NC=O`, the T/C runs as follows: (dose: 50.0 mg/kg/injection, schedule: Q01DX009 (ip), vehicle: saline) 98 % of control; (dose: 75.0 mg/kg/injection, schedule: Q01DX009 (ip), vehicle: saline) 93 % of control; (dose: 75.0 mg/kg/injection, schedule: Q04DX003 (ip), vehicle: saline) 106 % of control; (dose: 150.0 mg/kg/injection, schedule: Q04DX003 (ip), vehicle: saline) 96 % of control.

Regarding `CCOc1cc(/C=N/NC(=S)Nc2ccccc2)ccc1O`, the T/C under setting [1] is 98 % of control, the T/C under setting [3] is 105 % of control and the T/C under setting [5] was 94 % of control.

For the molecule `COc1ccccc1OCCOCCNC1C(C)CCCC1(C)C` (stereo not drawn), the T/C (dose: 12.5 mg/kg/injection, schedule: Q04DX003 (ip), vehicle: Klucel (hydroxypropylcellulose) (HPC)) was 100 % of control; the T/C (dose: 25.0 mg/kg/injection, schedule: Q04DX003 (ip), vehicle: Klucel (hydroxypropylcellulose) (HPC)) is 94 % of control; the T/C (dose: 50.0 mg/kg/injection, schedule: Q04DX003 (ip), vehicle: Klucel (hydroxypropylcellulose) (HPC)) was 93 % of control; the T/C under setting [2] was 90 % of control.

For `Cc1ccc(S(=O)(=O)OCCOS(=O)(=O)c2ccc(C)cc2)cc1`, the T/C under setting [2] was 90 % of control and the T/C under setting [4] was 87 % of control.
